According to patent US20220348567A1, “NOVEL OXADIAZOLE COMPOUNDS CONTAINING 5- MEMBERED HETEROAROMATIC RING FOR CONTROLLING OR PREVENTING PHYTOPATHOGENIC FUNGI” (PI INDUSTRIES LTD., priority 2019, published 2022):

Experiments:
Parastagonospora nodorum = Parastagonospora nodorum (PARANO) microtiter growth inhibition assay, OD600; format: cell-based; conditions: 18° C., 15-18 days, read-out: control (growth inhibition by OD600)
Protocol: Potato dextrose (PDB) liquid medium (Difco) containing a […] (10^5 spores/ml) spore suspension was prepared. For the inhibition assay, each test compound was solved in dimethyl sulfoxide. 100 μl of the test media-solution was added to a 96-well microtiter plate, consequently, the same volume (100 μl) of spore suspension was added to the well making the final test concentrations and the plate was incubated at 18° C. for 15-18 days. The growth inhibition was evaluated by measuring the OD600. Percent inhibition was calculated with the below formula: I=([…])*100 Where T=treatment, C═control, and B=blank

Phakopsora pachyrhizi = Phakopsora pachyrhizi test in soybean, greenhouse, preventive activity; format: in vivo, Phakopsora pachyrhizi on soybean plants; conditions: 24 h, spray one day before inoculation, soybean plants, read-out: control (efficacy, disease severity rating versus untreated control)
Protocol: Compounds were dissolved in 2% dimethyl sulfoxide/acetone and then mixed with water containing emulsifier to the calibrated spray volume of 50 mL. Each spray solution was poured into a spray bottle for further application. To test the preventive activity of the compound, healthy young Soybean plants, raised in the greenhouse, were sprayed with the active compound preparation at the stated application rate inside the spray cabinets using hollow cone nozzles. One day aftertreatment, the plants were inoculated with a conidial suspension containing 2×10^5Phakopsora […]. The inoculated plants were then kept in a greenhouse chamber at 22-24° C. temperature and 80-90% relative humidity for disease expression. A visual assessment of the compound's performance was carried out by rating the disease severity (0-100% scale) on treated plants 3, 7, 10 and 15 days after application. Efficacy (% control) of the compound was calculated by comparing the disease rating in the treatment with the one of the untreated control. The sprayed plants were also assessed for plant damage by recording symptoms like necrosis, chlorosis and stunting.

Botrytis cinerea = Botrytis cinerea (gray mold) in vitro radial growth test on potato dextrose agar; format: cell-based; conditions: 300 ppm; 7 days, 22° C., 90% relative humidity
Fusarium culmorum = Fusarium culmorum (foot rot of cereals) in vitro radial growth test on potato dextrose agar; format: cell-based; conditions: 300 ppm; 7 days, 25° C., 60% relative humidity
Protocol: Compounds were dissolved in 0.3% dimethyl sulfoxide and then added to potato dextrose agar medium just prior to dispensing it into petri dishes. 5 mL medium with the compound in the desired concentration was dispensed into 60 mm sterile petri-plates. After solidification, each plate was seeded with a 5 mm size mycelial disc taken from the periphery of an actively growing virulent culture plate. Plates were incubated in growth chambers at 25° C. temperature and 60% relative humidity for seven days and then the radial growth was measured and compared to the one of the untreated control.

Row | SMILES | inhibition at 300 ppm (Parastagonospora nodorum) [%] | pest or weed control at 500 ppm (Phakopsora pachyrhizi) [%] | control (radial growth compared to untreated control) (Botrytis cinerea) [%] | control (radial growth compared to untreated control) (Fusarium culmorum) [%]
1 | COc1ccc(C)c(NC(=O)Cc2cn(-c3ccc(-c4noc(C(F)(F)F)n4)cc3)cn2)c1 [Compound 16, N-(5-methoxy-2-methylphenyl)-2-(1-(4-(5-(trifluoromethyl)-1,2,4-oxadiazol-3-yl)phenyl)-1H-imidazol-4-yl)acetamide] | ≥ 70 | ≤ 70 | – | –
2 | COc1cc(F)ccc1NC(=O)Cc1cn(-c2ccc(-c3noc(C(F)(F)F)n3)cc2)cn1 [Compound 17, N-(4-fluoro-2-methoxyphenyl)-2-(1-(4-(5-(trifluoromethyl)-1,2,4-oxadiazol-3-yl)phenyl)-1H-imidazol-4-yl)acetamide] | ≥ 70 | ≤ 70 | – | –
3 | CS(C)(=O)=NC(=O)c1ccn(-c2ccc(-c3noc(C(F)(F)F)n3)cc2)c1 [Compound 30, N-(dimethyl(oxo)-λ^6-sulfanylidene)-1-(4-(5-(trifluoromethyl)-1,2,4-oxadiazol-3-yl)phenyl)-1H-pyrrole-3-carboxamide] | ≥ 70 | ≤ 70 | – | –
4 | CS(=O)(=NC(=O)c1ccn(-c2ccc(-c3noc(C(F)(F)F)n3)cc2)c1)c1ccncc1F (stereo not shown) [Compound 28, N-((3-fluoropyridin-4-yl)(methyl)(oxo)-λ^6-sulfanylidene)-1-(4-(5-(trifluoromethyl)-1,2,4-oxadiazol-3-yl)phenyl)-1H-pyrrole-3-carboxamide] | ≥ 70 | – | ≥ 70 | ≥ 70
5 | O=C(Cc1cn(-c2ccc(-c3noc(C(F)(F)F)n3)cc2)cn1)N1CCCC1 [Compound 3, 1-(pyrrolidin-1-yl)-2-(1-(4-(5-(trifluoromethyl)-1,2,4-oxadiazol-3-yl)phenyl)-1H-imidazol-4-yl)ethan-1-one] | ≥ 70 | ≤ 70 | – | –
6 | O=C(Cc1cn(-c2ccc(-c3noc(C(F)(F)F)n3)cc2)cn1)Nc1ccccc1 [Compound 15, N-phenyl-2-(1-(4-(5-(trifluoromethyl)-1,2,4-oxadiazol-3-yl)phenyl)-1H-imidazol-4-yl)acetamide] | ≥ 70 | ≤ 70 | – | –
